Source: patent US20090264415A2 (priority 2004, published 2009)
Where two headings read alike, the source gives them in different places.

System: peripheral blood mononuclear cells (PBMC) stimulated with allogeneic PBMC or EBV-transformed human B cells (RPMI1788)
Experiment: Mixed lymphocyte reaction (MLR) assay
Format: cell-based
Protocol: Pyrido[3,2-d]pyrimidine derivatives were first dissolved (10 mM) in dimethyl-sulfoxide (hereinafter referred as DMSO) and further diluted in culture medium before use for the following in vitro experiments. […] Some pyrido[3,2-d]pyrimidine derivatives described herein were tested in the following mixed lymphocyte reaction (MLR) assay.
Peripheral blood mononuclear cells (hereinafter referred as PBMC) were isolated from heparinized peripheral blood by density gradient centrifugation over Lymphoprep (Nycomed, Maorstua, Norway). Allogeneic PBMC or Eppstein-Barr Virus-transformed human B cells [commercially available under the trade name RPM11788 (ATCC name CCL156)] which strongly express B7-1 and B7-2 antigens were used as stimulator cells after irradiation with 30 Gy. MLR was performed in triplicate wells. After 5 days incubation at 37° C., 1 μCi [^3H]-thymidine was added to each cup. After a further 16 hours incubation, cells were harvested and counted in a β-counter. Inhibition of proliferation by a compound described in some of the present examples was counted while using the formula: [formula] wherein cpm is the thymidine count per minute. The MLR assay is regarded by those skilled in the art as an in vitro analogue of the transplant rejection since it is based on the recognition of allogeneic major histocompatibility antigens on the stimulator leukocytes, by responding lymphocytes.

[1] = Homo sapiens, RPMI-1788, MLR assay of example 319, read-out: MLR IC50
[2] = 50% suppression of the MLR, [3H]-thymidine incorporation, read-out: MLR
[3] = Homo sapiens, RPMI-1788, 50% suppression of the MLR, [3H]-thymidine incorporation, read-out: MLR

SMILES	IC50 [1] [nM]	other results
COc1ccc(OC)c(-c2ccc3nc(N)nc(N4CCN(C(=O)COc5ccc(Cl)cc5)CC4)c3n2)c1 [Example 506, 2-amino-4-[N-(4-chlorophenoxyacetyl)-piperazin-1-yl]-6-(2,5-dimethoxyphenyl)-pyrido(3,2-d)pyrimidine]	690	–
C[C@@H]1CN(C(=O)c2ccccc2)CCN1c1nc(N)nc2ccc(-c3ccc(F)cc3)nc12 [Example 487, (R)-2-amino-4-(4-benzoyl-2-methylpiperazin-1-yl)-6-(4-fluorophenyl)-pyrido[3,2-d]pyrimidine]	7500	–
Cc1cccc(NC(=O)N2CCN(c3nc(CN(C)C)nc4ccc(-c5ccc(F)cc5)nc34)CC2)c1 [Example 537, 2-(N,N-dimethylamino)methyl-4-[N-(3-methylphenylcarbamoyl)piperazin-1-yl]-6-(4-fluorophenyl)-pyrido[3,2-d]pyrimidine]	3300	–
COc1ccc(-c2ccc3nc(N)nc(N4CCN(C(=O)CC(C)(C)C)CC4)c3n2)cc1OC [Example 392, 2-amino-4-[4-(3,3-dimethylbutyryl)piperazin-1-yl]-6-(3,4-dimethoxyphenyl)-pyrido[3,2-d]pyrimidine]	300	–
Nc1nc(N2CCN(C(=O)COc3ccc(Cl)cc3)CC2)c2nc(-c3cc(F)c(F)c(F)c3)ccc2n1 [Example 432, 2-amino-4-[4-(4-chlorophenoxyacetyl)piperazin-1-yl]-6-(3,4,5-trifluorophenyl)-pyrido-[3,2-d]pyrimidine]	90	–
C[C@@H]1CN(C(=O)COc2ccc(Cl)cc2)CCN1c1nc(N)nc2ccc(-c3ccc(F)cc3)nc12 [Example 482, (R)-2-amino-4-[4-(4-chlorophenoxyacetyl)-2-methylpiperazin-1-yl]-6-(4-fluorophenyl)-pyrido[3,2-d]pyrimidine]	500	–
C[C@H]1CN(C(=O)COc2ccc(Cl)cc2)CCN1c1nc(N)nc2ccc(-c3ccc(F)cc3)nc12 [Example 489, (S)-2-amino-4-[4-(4-chlorophenoxyacetyl)-2-methylpiperazin-1-yl]-6-(4-fluorophenyl)-pyrido[3,2-d]pyrimidine]	5	–
COc1cccc(-c2ccc3nc(N)nc(N4CCN(C(=O)COc5ccc(Cl)cc5)CC4)c3n2)c1 [Example 418, 2-amino-4-[4-(4-chlorophenoxyacetyl)piperazin-1-yl]-6-(3-methoxyphenyl)pyrido-[3,2-d]pyrimidine]	57	–
Nc1nc(N2CCN(C(=O)COc3ccc(Cl)cc3)CC2)c2nc(-c3ccc(OCc4ccccc4)c(F)c3)ccc2n1 [Example 513, 2-amino-4-[N-(4-chlorophenoxyacetyl)-piperazin-1-yl]-6-(3-fluoro-4-benzyloxy-phenyl)-pyrido(3,2-d)pyrimidine]	> 10000	–
Nc1cccc(-c2ccc3nc(N)nc(N4CCN(C(=O)COc5ccc(Cl)cc5)CC4)c3n2)c1 [Example 419, 2-amino-4-[4-(4-chlorophenoxyacetyl)piperazin-1-yl]-6-(3-aminophenyl)pyrido-[3,2-d]pyrimidine]	20	–
Nc1nc(N2CCN(C(=O)NC3CCCC3)CC2)c2nc(-c3ccc(F)cc3)ccc2n1 [Example 454, 2-amino-4-[4-(N-cyclopentylcarbamoyl)-piperazin-1-yl]-6-(4-fluorophenyl)-pyrido[3,2-d]pyrimidine]	400	–
Nc1nc(N2CCN(C(=O)COc3ccc(Cl)cc3)CC2)c2nc(-c3ccc(F)c(Cl)c3)ccc2n1 [Example 408, 2-amino-4-[4-(4-chlorophenoxyacetyl)piperazin-1-yl]-6-(3-chloro-4-fluorophenyl)-pyrido-[3,2-d]pyrimidine]	200	–
Nc1nc(N2CCN(C(=O)COc3ccc(Cl)cc3)CC2)c2nc(-c3ccccc3Cl)ccc2n1 [Example 430, 2-amino-4-[4-(4-chlorophenoxyacetyl)piperazin-1-yl]-6-(2-chlorophenyl)pyrido-[3,2-d]pyrimidine]	40	–
Nc1nc(N2CCN(C(=O)CNC(=O)c3ccccc3)CC2)c2nc(-c3ccc(F)cc3)ccc2n1 [Example 478, N-(2-{4-[2-amino-6-(4-fluorophenyl)-pyrido[3,2-d]pyrimidin-4-yl]-piperazin-1-yl}-2-oxoethyl)benzamide]	5	–
COc1ccc(-c2ccc3nc(Nc4ccc(F)c(Cl)c4)nc(N4CCN(C(=O)Nc5cccc(C)c5)CC4)c3n2)cc1OC [Example 92]	–	IC50 [2]: 1200 nM
Nc1nc(N2CCN(C(=O)COc3ccc(Cl)cc3)CC2)c2nc(-c3ccsc3)ccc2n1 [Example 403, 2-amino-4-[4-(4-chlorophenoxyacetyl)piperazin-1-yl]-6-(thiophen-3-yl)pyrido-[3,2-d]pyrimidine]	40	–

SMILES	IC50 [1] [nM]	other results
COc1ccc(-c2ccc3nc(N)nc(N4CCC(O)(c5ccc(Cl)cc5)CC4)c3n2)cc1OC [Example 269, 2-amino-4-(4-chlorophenyl-4-hydroxypiperidin-1-yl)-6-(3,4-dimethoxyphenyl)-pyrido[3,2-d]pyrimidine]	–	IC50 [3]: 3100 nM
COc1ccc(-c2ccc3nc(Nc4ccc(C)cc4)nc(N4CCN(C(=O)Nc5cccc(C)c5)CC4)c3n2)cc1OC [Example 91, 2-(p-tolylamino)-4-[(N-3-methylphenylcarbamoyl)-piperazin-1-yl]-6-(3,4-dimethoxy-phenyl)-pyrido[3,2-d]pyrimidine]	–	IC50 [2]: 800 nM
Cc1ccc(-c2ccc3nc(N)nc(N4CCN(C(=O)COc5ccc(Cl)cc5)CC4)c3n2)cc1C [Example 516, 2-amino-4-[N-(4-chlorophenoxyacetyl)-piperazin-1-yl]-6-(3,4-dimethyl-phenyl)-pyrido(3,2-d)pyrimidine]	56	–
CC(=O)c1ccc(-c2ccc3nc(N)nc(N4CCN(C(=O)COc5ccc(Cl)cc5)CC4)c3n2)cc1 [Example 446, 2-amino-4-[4-(4-chlorophenoxyacetyl)piperazin-1-yl]-6-(4-acetylphenyl)pyrido-[3,2-d]pyrimidine]	11	–
Cc1cccc(NC(=O)N2CCN(c3ncnc4ccc(-c5ccco5)nc34)CC2)c1 [Example 563, 4-[(3-methylphenylcarbamoyl)-piperazin-1-yl]-6-(2-furanyl)pyrido[3,2-d]pyrimidine]	36	–
Cc1cccc(NC(=O)N[C@@H]2CCN(c3nc(N)nc4ccc(-c5ccc(F)cc5)nc34)C2)c1 [Example 579]	> 10000	–
CC(C)(C)OC(=O)NC(Cc1ccc(Cl)cc1)C(=O)N1CCN(c2nc(N)nc3ccc(-c4ccc(F)cc4)nc23)CC1 (stereo in doubt) [Example 477, (S)-[2-{4-[2-amino-6-(4-fluorophenyl)-pyrido[3,2-d]pyrimidin-4-yl]-piperazin-1-yl}-1-(4-chlorobenzyl)-2-oxoethyl]-carbamic acid tert-butyl ester]	4900	–
Nc1nc(N2CCN(CC(=O)OCc3ccc(Cl)cc3)CC2)c2nc(-c3ccc(F)cc3)ccc2n1 [Example 475, {4-[2-amino-6-(4-fluorophenyl)-pyrido[3,2-d]pyrimidin-4-yl]-piperazin-1-yl}-acetic acid 4-chloro-benzyl ester]	4200	–
CCN(CC)C(=O)N1CCN(c2nc(N)nc3ccc(-c4ccc(F)cc4)nc23)CC1 [Example 463, 2-amino-4-[4-(diethylcarbamoyl)piperazin-1-yl]-6-(4-fluorophenyl)-pyrido[3,2-d]pyrimidine]	600	–
Cc1cccc(NC(=O)N2CCN(c3nc(NC4CCCC4)nc4ccc(-c5ccc(F)cc5)nc34)CC2)c1 [Example 571, 2-cyclopentylamino-6-(4-fluorophenyl)-4-[(3-methylphenylcarbamoyl)-piperazin-1-yl]-pyrido[3,2-d]pyrimidine]	500	–
Nc1nc(N2CCN(C(=O)COc3ccc(Cl)cc3)CC2)c2nc(-c3ccc(CO)cc3)ccc2n1 [Example 441, 2-amino-4-[4-(4-chlorophenoxyacetyl)piperazin-1-yl]-6-[4-(hydroxymethyl)phenyl]pyrido-[3,2-d]pyrimidine]	8	–
Cc1cccc(NC(=O)N2CCN(c3ncnc4ccc(-c5ccc(F)c(C)c5)nc34)CC2)c1 [Example 555, 4-[(3-methylphenylcarbamoyl)-piperazin-1-yl]-6-(3-methyl-4-fluoro-phenyl)pyrido[3,2-d]pyrimidine]	300	–
Nc1nc(N2CCN(C(=O)COc3ccc(Cl)cc3)CC2)c2nc(-c3ccc(C(=O)O)s3)ccc2n1 [Example 413, 2-amino-4-[4-(4-chlorophenoxyacetyl)piperazin-1-yl]-6-(2-carboxythiophen-5-yl)pyrido-[3,2-d]pyrimidine]	> 10000	–
COc1ccc(-c2ccc3nc(N)nc(N4CCN(C(=O)COc5ccc(Cl)cc5)CC4)c3n2)c(OC)c1 [Example 505, 2-amino-4-[N-(4-chlorophenoxyacetyl)-piperazin-1-yl]-6-(2,4-dimethoxyphenyl)-pyrido(3,2-d)pyrimidine]	72	–
Nc1nc(N2CCN(C(=O)COc3ccc(F)cc3)CC2)c2nc(-c3ccc(F)cc3)ccc2n1 [Example 387, 2-amino-4-[4-(4-fluorophenoxyacetyl)piperazin-1-yl]-6-(4-fluorophenyl)-pyrido[3,2-d]pyrimidine]	200	–
Nc1nc(N2CCN(c3ccc(F)cc3)CC2)c2nc(-c3ccc(F)cc3)ccc2n1 [Example 204, 2-amino-4-[N-(4-fluoro-phenyl)-piperazin-1-yl]-6-(4-fluorophenyl)-pyrido[3,2-d]pyrimidine]	–	IC50 [3]: 6400 nM
